Biological target: xanthine oxidase (Homo sapiens, UniProt P47989)
Assay: Inhibition of xanthine oxidase activity
Assay type: biochemical
Details: observed by the inventors, in words

xanthine oxidase, sequence (P47989 whole entry, species assumed): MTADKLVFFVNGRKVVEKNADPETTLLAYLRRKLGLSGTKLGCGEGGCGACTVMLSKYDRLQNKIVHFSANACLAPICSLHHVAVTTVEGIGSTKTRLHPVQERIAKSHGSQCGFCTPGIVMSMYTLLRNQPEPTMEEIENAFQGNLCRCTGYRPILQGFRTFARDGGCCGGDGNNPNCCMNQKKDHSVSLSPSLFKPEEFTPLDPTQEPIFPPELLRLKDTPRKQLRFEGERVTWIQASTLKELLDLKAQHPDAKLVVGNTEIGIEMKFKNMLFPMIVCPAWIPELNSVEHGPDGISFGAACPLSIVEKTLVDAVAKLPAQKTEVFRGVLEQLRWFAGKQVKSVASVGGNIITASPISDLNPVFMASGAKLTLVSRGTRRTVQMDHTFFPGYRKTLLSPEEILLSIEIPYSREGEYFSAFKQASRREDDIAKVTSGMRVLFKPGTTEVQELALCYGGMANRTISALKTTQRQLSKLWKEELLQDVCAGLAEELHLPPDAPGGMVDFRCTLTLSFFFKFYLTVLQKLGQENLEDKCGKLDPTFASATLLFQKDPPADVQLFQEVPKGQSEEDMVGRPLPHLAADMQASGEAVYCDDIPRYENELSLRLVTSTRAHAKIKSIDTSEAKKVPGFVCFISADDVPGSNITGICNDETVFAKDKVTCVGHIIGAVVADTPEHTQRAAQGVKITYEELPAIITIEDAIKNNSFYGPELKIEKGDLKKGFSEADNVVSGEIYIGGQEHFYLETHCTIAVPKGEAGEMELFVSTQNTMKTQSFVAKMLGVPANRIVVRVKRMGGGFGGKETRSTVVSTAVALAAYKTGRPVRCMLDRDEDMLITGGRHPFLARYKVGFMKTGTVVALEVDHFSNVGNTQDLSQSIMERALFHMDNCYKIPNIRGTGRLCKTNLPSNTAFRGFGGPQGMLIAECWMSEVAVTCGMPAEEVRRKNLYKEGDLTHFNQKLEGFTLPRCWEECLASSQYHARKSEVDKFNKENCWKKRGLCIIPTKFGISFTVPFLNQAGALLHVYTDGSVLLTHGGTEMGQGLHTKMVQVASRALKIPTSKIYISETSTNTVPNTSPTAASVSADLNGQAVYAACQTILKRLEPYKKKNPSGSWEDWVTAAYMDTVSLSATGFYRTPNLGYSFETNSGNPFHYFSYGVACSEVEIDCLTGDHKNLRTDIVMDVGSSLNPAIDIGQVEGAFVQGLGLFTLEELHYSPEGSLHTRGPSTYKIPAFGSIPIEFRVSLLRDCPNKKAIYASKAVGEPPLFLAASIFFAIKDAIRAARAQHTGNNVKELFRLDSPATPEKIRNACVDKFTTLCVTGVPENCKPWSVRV

O=C(O)c1cc(O)c(O)c(O)c1Oc1cc2c(=O)oc3c(O)c(O)cc4c(=O)oc(c1O)c2c34 [valoneic acid dilactone]
inhibition of xanthine oxidase activity: inhibition of xanthine oxidase activity
